The source of these data is US20040044037A1, “Amidino-urea serotonin receptor ligands and compositions, their pharmaceutical uses, and methods for their snythesis” (priority 2003, published 2004).

The target of assay [1] is T1, human D2S dopamine (hD2S-DA) receptors (Homo sapiens, UniProt P14416).
T1 construct: purchased Receptor Biology, Inc. (Beltsville, Md.); host or cells: A9 L cells
Description: Competition radioligand binding, hD2S dopamine. Particulars: [3H]Spiperone; membranes of A9 L cells; read-out: Ki D2.

The target in a further assay is T2, human 5HT2a receptors (Homo sapiens, UniProt P28223).
T2 construct: expressed in transfected cells; host or cells: CHO K1 cells
T2 sequence (P28223 whole entry): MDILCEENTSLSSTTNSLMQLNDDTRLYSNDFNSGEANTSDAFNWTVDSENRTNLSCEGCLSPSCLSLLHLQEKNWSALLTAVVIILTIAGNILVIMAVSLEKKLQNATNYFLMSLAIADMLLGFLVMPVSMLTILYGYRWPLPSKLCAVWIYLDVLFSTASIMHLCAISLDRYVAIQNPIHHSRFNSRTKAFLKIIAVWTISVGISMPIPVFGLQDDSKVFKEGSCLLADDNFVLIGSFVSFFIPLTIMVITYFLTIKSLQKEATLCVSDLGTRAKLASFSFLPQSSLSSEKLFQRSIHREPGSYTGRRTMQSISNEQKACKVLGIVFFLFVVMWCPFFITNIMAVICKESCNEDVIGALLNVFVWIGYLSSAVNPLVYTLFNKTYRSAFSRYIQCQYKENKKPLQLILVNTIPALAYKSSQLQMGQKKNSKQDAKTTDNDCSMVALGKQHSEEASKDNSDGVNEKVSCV
Description: Competition radioligand binding, 5-HT2A. To be noted: [3H]Ketanserin; membranes of CHO K1 cells; read-out: Ki 5-HT2A. The procedure:
(§1) Cells and Membrane Preparation: HEK 293 cells stably expressing human 5-HT7B (h5-HT7b) receptors were grown in Dulbecco's Modified Eagle's Medium (DMEM; Gibco) without sodium pyruvate and containing 4.5 g/L glucose, L-glutamine/penicillin-streptomycin (Gemini), 10% fetal bovine serum and 250 mg/l of the antibiotic, G418 (Geneticin) as previously described (Jasper, J. R., Kosaka, A., To, Z. P., Chang, D. J. and Eglen, R. M. (1997) Cloning, expression and pharmacology of a truncated splice variant of the human 5-ht7 receptor (h5-ht7b). Br. J. Pharmacol. 122(1):126-132.). Cell pellets were homogenized in approximately 50 mL of homogenization buffer (buffer A) containing: 50 mM Tris (pH 7.4), 2 mM EGTA, 0.32 M sucrose, 10 μM PMSF, 1 μg/mL leupeptin, 5 μg/mL Pepstatin A, and 5 μg/mL aprotinin using an UltraTurax homogenizer (Tekmar Company, Cincinnati, Ohio) at 80% maximum setting three times for 10 sec. Cell pellets were centrifuged at 4° C. at 1,500×g for 10 min in a Beckman GS-6R centrifuge. Pellets were resuspended in buffer A, homogenized and centrifuged as described above. Pooled supernatants were transferred to centrifuge bottles and centrifuged at 4° C. at 20,000×g for 30 min in a Beckman J2-HS centrifuge. Cell pellets were resuspended in buffer A and were centrifuged at 4° C. at 20,000×g for 30 min. Cell pellets were resuspended in buffer A and stored at −70° C. in aliquots of 2.5 mg/mL total membrane protein. Total membrane protein was assessed utilizing a BCA kit (Pierce; Rockford, Ill.). Membranes containing human 5-HT1a or 5HT2a receptors expressed in CHO K1 cells were prepared as described above.
(§2) Radioligand Binding Assays: For 5-HT7 saturation binding experiments, HEK-293 cell membranes expressing h5-HT7 receptors (5-10 μg membrane protein/well) were incubated in duplicate with [^3H]5-CT (approximately 0.2 nM) in binding assay buffer containing: 50 mM HEPES (pH 7.4), 0.5 mM EDTA, 10 mM MgCl2, 10 μM pargyline to inhibit monoamine oxidase activity, and 0.1% sodium ascorbate, in a final volume of 200 μL in 96-well polypropylene plates for 2 hours at 37° C. Nonspecific binding was determined by incubating membranes with 1 μM 5-HT. All radioligand binding assays were stopped by rapid filtration onto 96-well GF/C filter plates (Packard) soaked in 0.1% polyethylenimine. Filters were washed three times with ice-cold phosphate-buffered saline (PBS) wash buffer containing 50 mM NaPO4 (pH 7.4), 0.9% NaCl, 2 mM MgCl2 and 0.02% NaN3. The filters were then counted using liquid scintillation in a Packard Topcount scintillation counter.
(§3) Data Analysis: Radioligand binding experiments were analyzed with Prism™ (Graphpad, San Diego, Calif.), a computer graphics and statistics program. IC50 values and Hill slopes for compounds were generated by nonlinear regression using Prism™. Values for Ki calculated from IC50 values by the Cheng and Prussoff equation (Cheng, Y. and Prusoff, W. H., (1973), “Relationship between the inhibition constant (Ki) and the concentration of inhibitor which causes 50 per cent inhibition (I50) of an enzymatic reaction.” Biochemical Pharmacol. 22:3099-3108).

The target of assay [2] is T3, human 5-HT6 (h5-HT6) receptors (Homo sapiens, UniProt P50406).
T3 construct: purchased Receptor Biology, Inc. (Beltsville, Md.); host or cells: HEK-293 cells
T3 sequence (P50406 whole entry): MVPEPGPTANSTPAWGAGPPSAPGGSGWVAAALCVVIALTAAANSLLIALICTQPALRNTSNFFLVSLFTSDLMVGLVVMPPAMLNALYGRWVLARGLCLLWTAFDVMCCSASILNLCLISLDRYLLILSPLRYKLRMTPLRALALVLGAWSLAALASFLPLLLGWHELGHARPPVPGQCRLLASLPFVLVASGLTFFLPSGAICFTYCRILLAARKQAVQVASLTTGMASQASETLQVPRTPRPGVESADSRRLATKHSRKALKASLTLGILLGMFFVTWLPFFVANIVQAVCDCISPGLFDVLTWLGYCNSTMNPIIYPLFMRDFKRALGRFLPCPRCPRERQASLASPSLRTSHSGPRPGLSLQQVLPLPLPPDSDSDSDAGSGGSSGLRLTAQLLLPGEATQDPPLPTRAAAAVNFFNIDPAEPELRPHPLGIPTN
As to the kind of experiment: Competition radioligand binding, h5-HT6. To be noted: [3H]LSD; membranes of HEK-293 cells; read-out: Ki 5-HT6.

The next assay has as its target T4, human 5-HT1a receptors (Homo sapiens, UniProt P08908).
T4 construct: expressed in transfected cells; host or cells: CHO K1 cells
T4 sequence (P08908 1-422): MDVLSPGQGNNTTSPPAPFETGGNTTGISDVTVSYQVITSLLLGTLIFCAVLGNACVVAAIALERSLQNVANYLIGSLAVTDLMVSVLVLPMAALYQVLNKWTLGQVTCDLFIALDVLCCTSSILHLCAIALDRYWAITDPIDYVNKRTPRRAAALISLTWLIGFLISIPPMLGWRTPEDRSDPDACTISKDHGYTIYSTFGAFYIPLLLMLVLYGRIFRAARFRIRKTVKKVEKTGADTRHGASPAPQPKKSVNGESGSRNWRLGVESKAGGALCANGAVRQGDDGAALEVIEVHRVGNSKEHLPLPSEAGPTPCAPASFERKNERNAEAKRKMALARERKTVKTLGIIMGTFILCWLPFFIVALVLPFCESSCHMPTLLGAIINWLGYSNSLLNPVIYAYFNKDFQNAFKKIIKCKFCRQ
Description: Competition radioligand binding, h5-HT1a. Particulars: [3H]5-CT; membranes of CHO K1 cells; read-out: Ki 5-HT1A. The procedure:
as §1, §2, §3

For assay [3], the target named is T5, human 5-HT7B (h5-HT7b) receptors (Homo sapiens, UniProt P34969).
T5 construct: expressed in transfected cells
T5 sequence (P34969 1-432 limits assumed): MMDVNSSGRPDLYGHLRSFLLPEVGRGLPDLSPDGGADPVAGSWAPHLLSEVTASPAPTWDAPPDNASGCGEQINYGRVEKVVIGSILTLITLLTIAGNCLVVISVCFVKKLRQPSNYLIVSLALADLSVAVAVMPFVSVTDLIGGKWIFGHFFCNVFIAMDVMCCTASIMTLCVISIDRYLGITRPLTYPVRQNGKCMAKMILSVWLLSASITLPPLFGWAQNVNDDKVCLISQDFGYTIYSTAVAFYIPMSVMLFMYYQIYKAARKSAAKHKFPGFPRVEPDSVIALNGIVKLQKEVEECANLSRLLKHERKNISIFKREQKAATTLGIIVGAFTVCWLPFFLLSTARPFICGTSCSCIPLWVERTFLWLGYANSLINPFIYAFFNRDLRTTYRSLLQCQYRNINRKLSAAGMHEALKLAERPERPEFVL
Description: Competition radioligand binding, h5-HT7b. Particulars: [3H]5-CT; membranes of HEK 293 cells; read-out: Ki 5-HT7. The method, boiled down:
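Membranes from HEK 293 cells stably expressing human 5-HT7b incubated with ~0.2 nM [3H]5-CT and varying compound 2 h at 37 °C in HEPES buffer pH 7.4 with pargyline. Nonspecific binding with 1 μM 5-HT; filtration, scintillation counting; IC50 by nonlinear regression converted to Ki via Cheng–Prusoff.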

T1 sequence (P14416 1-414 isoform P14416-2): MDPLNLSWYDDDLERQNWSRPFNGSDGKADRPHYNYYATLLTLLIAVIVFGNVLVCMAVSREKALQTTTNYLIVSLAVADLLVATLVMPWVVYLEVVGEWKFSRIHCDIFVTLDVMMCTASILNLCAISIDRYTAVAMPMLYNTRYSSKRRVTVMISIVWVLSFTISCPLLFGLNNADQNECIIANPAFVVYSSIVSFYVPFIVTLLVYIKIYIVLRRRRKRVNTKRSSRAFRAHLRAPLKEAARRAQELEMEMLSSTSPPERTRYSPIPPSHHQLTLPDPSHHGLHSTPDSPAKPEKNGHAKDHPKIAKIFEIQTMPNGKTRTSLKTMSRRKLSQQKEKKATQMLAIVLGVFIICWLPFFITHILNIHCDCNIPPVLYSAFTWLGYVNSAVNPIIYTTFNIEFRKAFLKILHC

`CN(C)C(=O)NC(=N)NCc1cccc2ccccc12` [Example 56, 1-({[{[(Dimethylamino)carbonyl]amino}(imino)methyl]amino}methyl)naphthalene]: the Ki was above 2500 nM in assay [1]; 17 nM at human 5HT2a receptors; above 10000 nM in assay [2]; 700 nM at human 5-HT1a receptors; 94 nM in assay [3].
Turning to `CNC(=O)NC(=N)NCc1cccc(-c2ccccc2)c1` [Example 87, 3-{[(Imino{[(methylamino)carbonyl]amino}methyl)amino]methyl}-1,1′-biphenyl], the inhibition constant (Ki) in assay [1] was above 2500 nM; on human 5HT2a receptors it was 1020 nM; in assay [2], 3360 nM; on human 5-HT1a receptors, above 400 nM; in assay [3], 80 nM.
For the compound `N=C(NCc1cccc2ccccc12)NC(=O)NC1CCN(Cc2ccccc2)CC1` [Example 6, 1-Benzyl-4-{[({imino[(1-naphthylmethyl)amino]methyl}amino)carbonyl]amino}piperidine], the Ki was 1050 nM in assay [1]; 13 nM at human 5HT2a receptors; 8630 nM in assay [2]; 770 nM at human 5-HT1a receptors; 68 nM in assay [3].
On to `N=C(NCc1cccc2ccccc12)NC(=O)NCC1(O)CCCCC1` [Example 50, 1-({[[({[(1-Hydroxycyclohexyl)methyl]amino}carbonyl)amino](imino)methyl]amino}methyl)naphthalene], for which the Ki in assay [1] came out at 1070 nM; on human 5HT2a receptors it was 0.25 nM; in assay [2], 620 nM; at human 5-HT1a receptors, 47 nM; in assay [3], 26 nM.
As for `N=C(NCc1cccc2ccccc12)NC(=O)N1CCC(Cc2ccccc2)CC1` [Example 29, N-[(4-Benzyl-1-piperidinyl)carbonyl]-N′-(1-naphthylmethyl)guanidine], the Ki in assay [1] is above 2500 nM; on human 5HT2a receptors it was 170 nM; in assay [2], above 10000 nM; at human 5-HT1a receptors, 2690 nM; in assay [3], 16 nM.
For `N=C(NCc1cccc2ccccc12)NC(=O)N1CCC2(CC1)C(=O)NCN2c1ccccc1` [Example 36, N-(1-Naphthylmethyl)-N′-[(4-oxo-1-phenyl-1,3,8-triazaspiro[4.5]dec-8yl)carbonyl]guanidine] the same measures were 340 nM, 33 nM, 740 nM, 580 nM and 11 nM.
Taken in the same sequence, the figures for `N=C(NCc1cccc2ccccc12)NC(=O)NCC1CCN(Cc2ccc(F)cc2)CC1` [Example 77, 1-(4-Fluorobenzyl)-4-({[({imino[(1-naphthylmethyl)amino]methyl}amino)carbonyl]amino}methyl)piperidine] were 1270 nM, 9.5 nM, 3350 nM, 1090 nM and 19 nM.
Consider `N=C(NCc1cccc2ccccc12)NC(=O)NC[C@@H]1CCCC[C@H]1O` [Example 46, 1-({[{[({[(1S,2R)-2-Hydroxycyclohexyl]methyl}amino)carbonyl]amino}(imino)methyl]amino}methyl)naphthalene], for which the Ki turned out to be 410 nM in assay [1]; 0.6 nM at human 5HT2a receptors; 500 nM in assay [2]; 49 nM at human 5-HT1a receptors; 9.8 nM in assay [3].
As to `CC(=O)Nc1ccc(NC(=O)NC(=N)NCc2cccc3ccccc23)cc1` [Example 1, N-(4-{[({Imino[(1-naphthylmethyl)amino]methyl}amino)carbonyl]amino}phenyl)acetamide], the inhibition constant (Ki) was found to be 1770 nM in assay [1]; 1 nM at human 5HT2a receptors; 2500 nM in assay [2]; 220 nM at human 5-HT1a receptors; 13 nM in assay [3].
For `COc1ccc(C(C)=O)cc1CN1CCC(CNC(=O)NC(=N)NCc2cccc3ccccc23)CC1` [Example 63, 1-(5-Acetyl-2-methoxybenzyl)4({[({imino[(1-naphthylmethyl)amino]methyl}amino)carbonyl]amino}methyl)piperidine] the same measures were 1780 nM, 1.8 nM, 3030 nM, 340 nM and 39 nM.
Taken in the same sequence, the figures for `CNC(=O)NC(=N)NCc1ccccc1Oc1ccccc1Cl` [Example 86, 1-(2-Chlorophenoxy)-2-{[(imino{[(methylamino)carbonyl]amino}methyl)amino]methyl}benzene] were above 2500 nM, 290 nM, 580 nM, 920 nM and 6.3 nM.
Taken in the same sequence, the figures for `N=C(NCc1cccc2ccccc12)NC(=O)N1CCN(Cc2ccccc2)CC1` [Example 7, N-[(4-Benzyl-1-piperazinyl)carbonyl]-N′-(1-naphthylmethyl)guanidine] were 770 nM, 43 nM, above 10000 nM, 1690 nM and 1.4 nM.
Regarding `COc1ccccc1N1CCN(C(=O)NC(=N)NCc2cccc3ccccc23)CC1` [Example 21, N-{[4-(2-Methoxyphenyl)-1-piperazinyl]carbonyl}-N′-(1-naphthylmethyl)guanidine], the Ki in assay [1] is 900 nM; on human 5HT2a receptors, 150 nM; in assay [2], above 10000 nM; at human 5-HT1a receptors, 520 nM; in assay [3], 6 nM.
As to `C[C@@H](O)CNC(=O)NC(=N)NCc1cccc2ccccc12` [Example 55, 1-({[[({[(2R)-2-Hydroxypropyl]amino}carbonyl)amino](imino)methyl]amino}methyl)naphthalene], the inhibition constant (Ki) was above 2500 nM in assay [1]; 1.5 nM on human 5HT2a receptors; 2320 nM in assay [2]; 1720 nM at human 5-HT1a receptors; 10 nM in assay [3].
Taken in the same sequence, the figures for `N=C(NCc1cccc2ccccc12)NC(=O)N[C@@H](Cc1ccc(O)cc1)C(N)=O` [Example 35] were 630 nM, 0.92 nM, 460 nM, above 4000 nM and 5.1 nM.
